Consider 30 compounds from publication PMC5571359, “Screening the Medicines for Malaria Venture Pathogen Box across Multiple Pathogens Reclassifies Starting Points for Open-Source Drug Discovery” (Antimicrobial Agents and Chemotherapy, 2017).

One data set relates to HepG2. Particulars: cited from earlier work.
The subject of another data set is P. falciparum ABS. As to conditions: cited from earlier work; for pEC50: ChEMBL Data; for pIC50: read-out: Pf 3D7 Pbox IC50.
In data set [1] the test system is T. b. brucei 427 bloodstream trypanosomes. Description: T. b. brucei resazurin viability assay. It counts as cell-based, Trypanosoma brucei brucei. (Resazurin is reduced to fluorescent resorufin, in cell work by metabolically active cells.)
The next data set concerns HEK293 cells. Briefly: HEK293 resazurin cell cytotoxicity assay. Particulars: Homo sapiens.
In a further data set the test system is liver stage. As to conditions: cited from earlier work.
Another data set relates to T. brucei rhodesiense. Particulars: ref Pbox supporting information; read-out: T .b. rohdensie Pbox IC50; cited from earlier work.
The subject of data set [2] is L. infanium (macrophages). Also noted: method as in Pbox supporting information. As to conditions: ref Pbox supporting information; cited from earlier work.
Another data set deals with T. brucei brucei. As to conditions: ref Pbox supporting information; read-out: T.b. brucei Pbox IC50; cited from earlier work.
Data set [3] deals with T. cruzi C4 β-galactosidase reporter parasite in MRC 5SV2 host cells. As to conditions: ref Pbox supporting information; read-out: T. cruzi Pbox IC50; cited from earlier work.
[4] abbreviates: read-out: HepG2 PBox CC50 µM, ref PBox supporting information.
Setting [5] is: P. falciparum, read-out: TCMDC (ref 93) EX50.
Where [6] appears, read: P. falciparum 3D7, ref PBox supporting information.
Setting [7] is: HEK293, read-out: HEK % Inhibition 20uM/IC50 Discovery Biology (IA).
[8] abbreviates: ref Pbox supporting information.
Where [9] appears, read: HEK293, read-out: HEK % Inhibition 20uM/IC50 Discovery Biology.
Setting [10] is: read-out: HepG2 PBox CC50 µM, HepG2 CC50, ref Pathogen Box supporting information.
Setting [11] is: TCMDC, read-out: TCMDC (ref 93) EX50.
Setting [12] is: Pf 3D7, ref Pathogen Box supporting information.
[13] abbreviates: liver stage, ref Pathogen Box supporting information, read-out: LIVER STAGE Pbox IC50.
Setting [14] is: NITD, read-out: NITD (ref 94) EC50.

pEC50, pIC50: −log10 of the molar value. Read-outs that look alike come from different tables or passages of the source.

For `OCCc1ccc(Nc2nccc(-c3nnc4ccccn34)n2)cc1` [MMV028694], in the data set on HepG2 (setting [4]), the CC50 was 8.1 µM. Besides, in the data set on P. falciparum ABS (setting [5]), the pEC50 is 6.05. In addition, the pIC50 is 5.97 with P. falciparum ABS (setting [6]), 5.62 in data set [1] (Trypanosoma brucei; PBox compounds; read-out: IC50 T. brucei brucei (Discovery Biology)), under 4.70 in the data set on HEK293 cells (setting [7]) and 5.83 in the data set on liver stage (setting [8]).
With `CCOC(=O)c1noc(N)c1-c1ccccc1` [MMV1236379], the pIC50 in the data set on T. brucei rhodesiense is 6.34; in data set [2] it was under 4.19; with T. brucei brucei, 5.91; in [3], under 4.19.
For `c1cc(C2=NCCN2)cc(-c2cc(-c3ccc(C4=NCCN4)cc3)no2)c1` [MMV688361], the pIC50 with T. brucei rhodesiense was 5.52; in [2], under 4.49; in the data set on T. brucei brucei, 5.25; in data set [3], under 4.49. Moreover, the “HepG2 PBox CC20” value in the data set on HepG2 (HepG2, ref PBox supporting information) is 4.5 µM.
Turning to `Clc1ccc(CN2CCN(C3=NCCN3)CC2)cc1Cl` [MMV689060], the pIC50 in the data set on T. brucei rhodesiense was 4.52; in data set [2], under 4.19; in the data set on T. brucei brucei it was 4.50; in data set [3], 5.18.
Take `COc1ccc(C2=NN(C3CCCCCC3)C(=O)C2(C)C)cc1OCCCCOc1ccc(-c2nn[nH]n2)cc1` [MMV690028]: the pIC50 was 6.10 in the data set on T. brucei brucei, 5.65 in data set [1] (Trypanosoma brucei; read-out: T b.brucei Discovery Biology IC50) and under 4.70 in the data set on HEK293 cells (setting [9]).
For the compound `CC1CC1C(=O)NC1CCN(CC2(c3ccccc3)CCCCC2)CC1` (centres unmarked) [MMV020120], in the data set on HepG2 (setting [10]), the CC50 is over 10 µM. Also, the pEC50 in the data set with P. falciparum ABS (setting [11]) is 6.19. In addition, the pIC50 with P. falciparum ABS (setting [12]) was 6.24; in the data set on liver stage (setting [13]), 5.65.
As for `COc1cncc(-c2cncc(N3CCN(c4ccncc4)CC3)n2)c1` [MMV085071], the CC50 in the data set on HepG2 (setting [4]) was over 10 µM. Further, the pEC50 in the data set with P. falciparum ABS (P. falciparum, read-out: NITD (ref 94) EC50) is 7.10. Moreover, the pIC50 was 7.00 in the data set with P. falciparum ABS (setting [6]) and under 5.12 in the data set on liver stage (setting [8]).
Turning to `CN(C)CCNC(=O)N1CCCN(c2ncnc3cc(-c4ccccc4)sc23)CC1` [MMV024195], the CC50 with HepG2 (setting [10]) was over 10 µM. The pEC50 in the data set on P. falciparum ABS (setting [11]) is 6.10. Moreover, the pIC50 in the data set with P. falciparum ABS (setting [12]) is 5.80; in the data set with liver stage (setting [13]), 5.71.
With `Cc1cccc(NC(=O)c2cc(S(=O)(=O)N(C)c3ccc(F)cc3)ccc2Cl)n1` [MMV676528], in the data set with HepG2 (setting [4]), the CC50 was over 10 µM. In addition, the pIC50 in the data set with P. falciparum ABS (setting [6]) is 5.80; in the data set on liver stage (setting [8]), 5.17.
As for `CNC(=O)C1Cc2c([nH]c3cc(Cl)ccc23)C2(CCN(CCc3ccccc3)CC2)N1` (centres unmarked) [MMV031011], the CC50 in the data set on HepG2 (setting [4]) is over 10 µM. Moreover, the pEC50 with P. falciparum ABS (setting [5]) was 6.03. Moreover, the pIC50 in the data set on P. falciparum ABS (setting [6]) was 6.07; in the data set on HEK293 cells (setting [7]), under 4.70; in the data set with liver stage (setting [8]) it was 5.35.
For the compound `Cc1ccc(S(=O)(=O)N2CCN(C(=O)c3cc(-c4ccccc4)n[nH]3)CC2)cc1` [MMV019742], the CC50 in the data set with HepG2 (setting [10]) is over 10 µM. The pEC50 with P. falciparum ABS (setting [11]) was 6.22. Further, the pIC50 was 5.98 in the data set with P. falciparum ABS (setting [12]) and 6.20 in the data set on liver stage (setting [13]).
Turning to `Cc1cnc(CCNC(=O)c2cc(-c3ccc(Cl)cc3)cs2)[nH]1` [MMV676350], the CC50 with HepG2 (setting [4]) was over 10 µM. Also, the pEC50 in the data set with P. falciparum ABS (setting [5]) was 6.62. The pIC50 with P. falciparum ABS (setting [6]) is 6.09; in the data set on liver stage (setting [8]), 5.07.
Regarding `C[C@]1(O)C[C@@H](c2nc(-c3ccc4ccc(-c5ccccc5)nc4c3)c3c(N)nccn32)C1` [MMV676605], the CC50 in the data set on HepG2 was over 10 µM. The pIC50 is under 5.70 in the data set with P. falciparum ABS (setting [6]) and 6.44 in the data set on liver stage (setting [8]).
With `Cc1cc(C(=O)Nc2ccc(-c3ccccc3)cc2)no1` [MMV020152], the CC50 in the data set with HepG2 (setting [10]) is over 10 µM. Also, in the data set with P. falciparum ABS (setting [11]), the pEC50 is 6.16. For the same compound, the pIC50 was 6.09 in the data set with P. falciparum ABS (setting [12]) and under 5.00 in the data set with liver stage (setting [13]).
Take `O=C(NC1CC1)c1ccc(N2CCC(Cc3ccccc3)CC2)nc1` [MMV024397]: the CC50 with HepG2 (setting [10]) was over 10 µM. For the same compound, the pEC50 in the data set with P. falciparum ABS (setting [11]) is 6.12. In addition, the figures for the pIC50 in the data set on P. falciparum ABS (setting [12]) and in the data set on liver stage (setting [13]) were 5.88 and 5.85, respectively.
For `Cc1cc(C(=O)Nc2cnn(Cc3ccc(Cl)cc3Cl)c2)no1` [MMV009054], in the data set with HepG2 (setting [10]), the CC50 is over 10 µM. Moreover, the pEC50 with P. falciparum ABS (setting [14]) was 6.21. The pIC50 was 5.73 in the data set on P. falciparum ABS (setting [12]) and 5.86 with liver stage (setting [13]).
Turning to `CC(C)C(NC(=O)Cc1cccc2ccccc12)C(=O)Nc1cccc(C#N)c1` (centres unmarked) [MMV020591], in the data set on HepG2 (setting [10]), the CC50 is over 10 µM. Moreover, the pEC50 in the data set with P. falciparum ABS (setting [11]) is 6.18. In addition, the pIC50 in the data set with P. falciparum ABS (setting [12]) is 6.02; in the data set on liver stage (setting [13]) it was 5.04.
Take `COc1ccc(C2=NN(C3CCCCCC3)C(=O)[C@@H]3CC=CC[C@H]23)cc1OCCCCOc1ccc(-c2nn[nH]n2)cc1` [MMV690027]: the pIC50 in the data set with T. brucei brucei was 7.70; in [1] (Trypanosoma brucei, read-out: T b.brucei Discovery Biology IC50) it was 6.30; in the data set with HEK293 cells (setting [9]) it was under 4.70.
With `CC(=O)Nc1ccc(-c2noc(CC3CCCN(Cc4cccc(F)c4C)C3)n2)cc1` (centres unmarked) [MMV689061], the pIC50 was 4.60 with T. brucei rhodesiense, 5.80 in [2], 4.49 with T. brucei brucei and 5.55 in data set [3].
Take `Clc1cccc(C(c2ccc(CN3CCNCC3)cc2)n2ccnc2)c1` (centres unmarked) [MMV663250]: the CC50 in the data set with HepG2 (setting [4]) was over 10 µM. Moreover, the results for the pIC50 in the data set on P. falciparum ABS (setting [6]), with HEK293 cells (setting [7]) and in the data set with liver stage (setting [8]) were 5.79, under 4.70 and under 5.00, respectively.
For `CCOc1ccccc1NC(C)C(=O)Nc1cc(C(F)(F)F)ccc1N1CCOCC1` (centres unmarked) [MMV407834], the CC50 in the data set with HepG2 (setting [4]) is over 10 µM. For the same compound, the pIC50 in the data set with P. falciparum ABS (setting [6]) was 6.38; with liver stage (setting [8]) it was under 5.00.
As to `Cc1nc(-c2cccc(NCc3ccccc3)c2)[nH]c1C` [MMV023227], the CC50 with HepG2 (setting [10]) was over 10 µM. In the data set with P. falciparum ABS (setting [11]), the pEC50 is 6.07. For the same compound, the pIC50 with P. falciparum ABS (setting [12]) was 5.71; in the data set on liver stage (setting [13]), 5.34.
Regarding `Cc1ccc(S(=O)(=O)n2cc(-c3ccnc(N)c3)c3cc(Br)cnc32)cc1` [MMV024114], in the data set on HepG2 (setting [10]), the CC50 was over 6 µM. Besides, the pEC50 in the data set with P. falciparum ABS (setting [11]) was 6.05. Further, the pIC50 in the data set with P. falciparum ABS (setting [12]) is 6.20; in the data set on liver stage (setting [13]), under 5.22. For the same compound, the inhibition at 20 µM in the data set with HEK293 cells (setting [9]) was 60%.
Consider `COc1ccc(CN2CCOc3ccc(C(C)(O)CN(C)C)cc3C2)cc1C` (centres unmarked) [MMV008439], for which the CC50 in the data set with HepG2 (setting [10]) was over 10 µM. Besides, the pEC50 in the data set with P. falciparum ABS (setting [14]) is 6.09. Further, the pIC50 in the data set with P. falciparum ABS (setting [12]) is under 5.70; in the data set on liver stage (setting [13]) it was 6.03.
With `Cc1cccc(C(=O)Nc2ccnc(N(C)C3CCN(CC(C)C)CC3)c2)c1` [MMV024829], the CC50 in the data set with HepG2 is over 10 µM. Moreover, the pEC50 with P. falciparum ABS (setting [11]) was 6.06. Moreover, the results for the pIC50 with P. falciparum ABS (setting [12]) and in the data set with liver stage (setting [13]) were 5.68 and under 5.00, respectively.
As for `CN1CCCN(C(c2ccccc2)c2ccc(Cl)cc2)CC1` (centres unmarked) [MMV004168], the pIC50 was 5.71 in the data set on T. brucei rhodesiense, 4.44 in data set [2], 5.33 with T. brucei brucei and 5.03 in data set [3].
For `C[C@H](C(N)=O)N1CCCC[C@H]1c1ccc(OCc2cccc(F)c2)cc1` [MMV676269], in the data set with HepG2 (setting [4]), the CC50 was over 10 µM. Besides, in the data set on P. falciparum ABS (setting [5]), the pEC50 was 6.00. Moreover, the results for the pIC50 with P. falciparum ABS (setting [6]) and in the data set on liver stage (setting [8]) were under 5.70 and 5.87, respectively.
Regarding `Cc1cc(C)n2nc(C(=O)Nc3cc(C(F)(F)F)ccc3N3CCOCC3)nc2n1` [MMV019087], the CC50 with HepG2 (setting [10]) is over 10 µM. Moreover, the pEC50 with P. falciparum ABS (setting [11]) was 6.92. Besides, the pIC50 with P. falciparum ABS (setting [12]) was 6.66; in the data set on liver stage (setting [13]), 5.92.
For `CN1CCN(c2nccc3nc(-c4ccc(F)c(F)c4)[nH]c23)CC1` [MMV676260], the CC50 in the data set on HepG2 (setting [4]) was over 10 µM. The pIC50 was 5.95 in the data set on P. falciparum ABS (setting [6]) and under 5.00 in the data set with liver stage (setting [8]).
On to `Cc1nnc(NC(=O)c2cn(-c3ccccc3)nc2-c2ccccc2C)o1` [MMV020320], for which the CC50 in the data set with HepG2 (setting [10]) was over 10 µM. The pEC50 with P. falciparum ABS (setting [11]) is 6.24. Also, the pIC50 is 6.15 in the data set with P. falciparum ABS (setting [12]) and 6.77 in the data set on liver stage (setting [13]).
